Data from paper PMC12455397 (Angewandte Chemie (International Ed. in English), 2025).
Blank lines part the entries; values can stand above or below the compound they belong to.

Assays:
[1] = tested on: THP1 cells; type: cell-based; details: THP-1 WT, 10 and 100 µM, 48 h
[2] = target: human Keap1 Kelch (Homo sapiens, UniProt Q14145); assay: Fluorescence polarization (FP) competition assay with Cy5-Nrf2 peptide probe; details: for Ki: ≥3 individual measurements; for ligand efficiency (LE): from FP Ki
[3] = tested on: Nrf2 KO THP1 cells differentiated into macrophages; assay: RNA sequencing transcriptome analysis, Nrf2 KO THP-1 macrophages; type: cell-based; details: 12 h, CDDO-Me 0.1 µM, DMF, 24, 28 10 µM, KI-696 1 µM
[4] = tested on: differentiated THP1 macrophages (WT); details: for AKR1B10 FC / CASP1 FC / COL1A1 FC / COL4A1 FC / COL4A2 FC / CYP1B1 FC / GPX1 FC / GPX4 FC / IFNAR1 FC / IFNAR2 FC / IFNGR1 FC / IFNGR2 FC / IL1B FC / IRF3 FC / LAMB1 FC / LAMB4 FC / MMP8 FC / MMP9 FC / MMP12 FC / NLRP3 FC / NOD2 FC / NOXA1 FC / SOCS1 FC / SOCS3 FC / SOD1 FC / SOD2 FC / STAT1 FC / TBK1 FC / TLR4 FC / TNFRSF1B FC / TRAP1 FC / cGAS FC: Table S3, THP-1, 12 h; for NQO1 upregulation at 24 h: 10 µM (footnote * of Figure 7c)
[5] = tested on: NLRP3 inflammasome in macrophage-derived THP-1 cells; assay: NLRP3 inflammasome / TLR4 activation in THP-1 macrophages (WB, ELISA); type: cell-based; details: 100 µM, 24 h; for IL-1β release (ELISA) following NLRP3 activation: LPS 100 ng/mL 3 h + nigericin 10 µM 1 h; for IL-1β release (ELISA) following high concentrations of LPS: LPS 2 µg/mL 6 h; for expression of NLRP3 (WB) / total protein levels of pro-IL-1β (WB): LPS or LPS+nigericin stimulation
[6] = tested on: NQO1 mRNA in BEAS-2B cells; assay: qPCR-based BEAS-2B cell assay (NQO1 mRNA); parameters: species or system human; details: mean ± SEM, 2-4 independent experiments
Protocol: RT-qPCR were stimulated with compounds or DMSO diluted in DMEM and incubated for 24 h. DMSO was added accordingly to highest percentage compound volume added.
Upon 24 hour compound stimulation, the cells were trypsinized, washed, spun down and resuspended in 70 μL of ice-cold Pierce RIPA lysis buffer (Thermo Scientific) supplemented with 10 mM NaF, 1× complete protease cocktail inhibitor (Roche), and 5 IU mL-1 benzonase (Sigma), respectively. The protein concentrations were determined using the BCA protein assay kit (Thermo Scientific) and samples was equalized accordingly to the sample of lowest protein concentration. 1×XT sample buffer (Bio-Rad) and 1×XT reducing agent (Bio-Rad) were added to the samples, and lysates were denatured by boiling for 5 min at 95 °C. Denatured samples was separated by SDS-PAGE on a 4–20% Criterion TGX precast gradient gel (Bio-Rad). The gel ran initially for 20 min at 70 V and 45 min at 120 V and was then transferred onto a PVDF membrane (Bio-Rad) using a Trans-Blot Turbo transfer system. […]
Upon 5 hour compound stimulation, RNA was extracted from the cells using the High Pure RNA Isolation Kit (Roche, 11828665001) according to the manufacturer’s instructions. […] The quality and purity of the RNAs were assessed by Nanodrop spectrometry (DeNovix DS-11). Using the TaqMan detection systems, the gene expression of HO-1 (HMOX-1), NQO1, AKR1B10, and TRXR1 was determined by real-time PCR. […] The commercially available TaqMan assay (Thermo Fischer Scientific, cat. no. 4392938) was used, and samples were analyzed in a final volume of 10 μL reaction mix containing 5 μL of master mix, 0.2 μL of RT enzyme, 2.3 μL of nuclease-free water, […] (TATA-Box Binding Protein/TBP; […]
Hs00917067_m1, Thermo Fisher), and 2 μL of pure RNA. The samples were analyzed using a QuantStudioTM 3 real-time PCR instrument with the following program: 1 × (10 min, 48.0 °C; 10 min, 95.0 °C); 40 × (30 s, 95.0 °C; 1 min, 60.0 °C). […]
The upregulation of NQO1 mRNA in BEAS-2B cells was measured by qPCR, as previously described.[20] […]

[7] = tested on: cGAS-STING pathway in macrophage-derived THP-1 cells; assay: cGAS-STING pathway in THP-1 macrophages (WB); type: cell-based; details: 100 µM, 24 h; cGAMP 4 µg/mL 6 h
[8] = tested on: Nrf2-regulated genes (AKR1B10, NQO1, TRXR1, HO-1) in HaCaT human keratinocytes; assay: HaCaT cell assay, RT-qPCR of Nrf2-regulated genes; type: cell-based; details: WT HaCaT, 3, 1 and 0.33 µM, 5 h, normalized to TBP
[9] = tested on: Nrf2-regulated genes (AKR1B10, NQO1, TRXR1, HO-1) in HaCaT human keratinocytes; assay: HaCaT cell assay, Western Blotting of Nrf2-regulated proteins; type: cell-based; details: 24 h; for protein levels of Nrf2-regulated genes by WB: HaCaT, 10 µM; for relative cell potency among the six compounds (WB): HaCaT, 10, 3, 1 µM
[10] = tested on: IFN signalling in macrophage-derived THP-1 cells; assay: Type I IFN signalling after IFNβ stimulation in THP-1 macrophages (WB); type: cell-based; details: 100 µM, 24 h; IFNβ 500 U/mL 1 h
[11] = Ki (FP), mean, text and figures
[12] = WT, 12 h, CDDO-Me 0.1 µM, SFN, DMF, 24, 28 10 µM, KI-696 1 µM
[13] = WT, 12 h, CDDO-Me 0.1 µM, SFN, DMF, 24, 28 10 µM, KI-696 1 µM, NS = not significant

Chain of human Keap1 Kelch (Q14145 321-609): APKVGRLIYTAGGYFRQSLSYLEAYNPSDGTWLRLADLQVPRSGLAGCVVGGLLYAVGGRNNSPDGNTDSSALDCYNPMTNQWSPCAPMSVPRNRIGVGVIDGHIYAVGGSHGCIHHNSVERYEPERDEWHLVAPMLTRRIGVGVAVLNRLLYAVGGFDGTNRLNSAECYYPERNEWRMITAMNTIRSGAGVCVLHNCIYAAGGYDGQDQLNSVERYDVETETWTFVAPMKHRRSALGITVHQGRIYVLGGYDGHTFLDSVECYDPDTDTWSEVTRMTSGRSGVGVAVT

Ki ([2]; FP (Ki/nM), Table S2, mean ± SEM, NA: not active (measured up to 4 mM)): 10.1 ± 1.4 nM
Ki [2, 11]: 10 nM
fold difference in affinity (FP) between the enantiomers of 24 ([2]; Peak 1 vs Peak 2 after chiral HPLC separation): 14 fold
ligand efficiency (LE) [2]: 0.30
CYP1B1 FC [4]: 1,14 fold
Structure (SMILES): Cc1cc2c(cc1C(CC(=O)O)c1ccc3ccc(OCC(=O)NC4CCCCCC4)cc3c1)OCO2 (centres unmarked) [Compound 24]
cell viability [1]: did not reduce cell viability
number of up- or downregulated genes in Nrf2 KO cells [3]: 347 genes
AKR1B10 FC [4]: 6,62 fold
CASP1 FC [4]: 0,65 fold
COL1A1 FC [4]: 1,40 fold
COL4A1 FC [4]: 1,16 fold
COL4A2 FC [4]: 1,10 fold
GPX1 FC [4]: 0,60 fold
GPX4 FC [4]: 1,13 fold
IFNAR1 FC [4]: 0,93 fold
IFNAR2 FC [4]: 1,00 fold
IFNGR1 FC [4]: 0,63 fold
IFNGR2 FC [4]: 0,73 fold
IL1B FC [4]: 0,85 fold
IRF3 FC [4]: 0,96 fold
LAMB1 FC [4]: 5,65 fold
LAMB4 FC [4]: 4,43 fold
MMP8 FC [4]: 0,79 fold
MMP9 FC [4]: 0,91 fold
MMP12 FC [4]: 0,51 fold
NLRP3 FC [4]: 0,79 fold
NOD2 FC [4]: 0,35 fold
NOXA1 FC [4]: 0,41 fold
SOCS1 FC [4]: 2,11 fold
SOCS3 FC [4]: 2,26 fold
SOD1 FC [4]: 0,41 fold
SOD2 FC [4]: 0,59 fold
STAT1 FC [4]: 0,82 fold
TBK1 FC [4]: 0,86 fold
TLR4 FC [4]: 1,17 fold
TNFRSF1B FC [4]: 1,08 fold
TRAP1 FC [4]: 0,82 fold
cGAS FC [4]: 1,36 fold
KEGG pathway analysis of upregulated genes ([4]; WT, 10 µM, 12 h): activated other important gene clusters involved in cytokine receptor interaction and activation of immune cells
Average FC of upregulated Nrf2-dependent genes [4, 12]: 2.7 fold
GCLM fold change vs vehicle [4, 13]: 3.0 fold
HMOX1 fold change vs vehicle [4, 13]: 2.2 fold
SRXN1 fold change vs vehicle [4, 13]: 2.5 fold
TXNRD1 fold change vs vehicle [4, 13]: 2.9 fold
NQO1 upregulation at 24 h ([4]; WT): 1.5 fold
NLRP3 inflammasome activation: release of cleaved caspase-1 and cleaved IL-1β in supernatants (WB) [5]: markedly decreased NLRP3 inflammasome activation
cleavage of gasdermin D (GSDMD) (WB) [5]: prevented the cleavage of gasdermin D
IL-1β release (ELISA) following NLRP3 activation [5]: confirmed a decrease
IL-1β release (ELISA) following high concentrations of LPS [5]: no statistical difference was observed
expression of NLRP3 (WB) [5]: markedly reduced
total protein levels of pro-IL-1β (WB) [5]: also reduced
EC50 ([6]; Homo sapiens, BEAS-2B): 110 nM
ISG15 levels (WB) [7]: reduced levels
total STING levels and STING activation (phosphorylated STING and TBK1) (WB) [7]: reduced total STING levels and STING activation
target gene mRNA expression (RT-qPCR) [8]: several‐fold increases in target gene mRNA expression
protein levels of Nrf2-regulated genes by WB [9]: strong bands in WB for all tested proteins
relative cell potency among the six compounds (WB) [9]: most potent
IFN signalling (phosphorylated STAT1, IFIT1 protein levels) (WB) [10]: did not affect IFN signalling

Ki [2, 11]: 8.8 nM
ligand efficiency (LE) [2]: 0.29
CYP1B1 FC [4]: 1,04 fold
Structure (SMILES): Cc1cc2c(cc1C(CC(=O)O)c1ccc3ccc(OCC(=O)NC4CCCCCC4)cc3c1)OCCO2 (centres unmarked) [Compound 28]
cell viability [1]: did not reduce cell viability
number of up- or downregulated genes in Nrf2 KO cells [3]: 266 genes
AKR1B10 FC [4]: 4,27 fold
CASP1 FC [4]: 0,59 fold
COL1A1 FC [4]: 1,40 fold
COL4A1 FC [4]: 1,15 fold
COL4A2 FC [4]: 1,11 fold
GPX1 FC [4]: 0,62 fold
GPX4 FC [4]: 1,20 fold
IFNAR1 FC [4]: 0,92 fold
IFNAR2 FC [4]: 0,99 fold
IFNGR1 FC [4]: 0,64 fold
IFNGR2 FC [4]: 0,76 fold
IL1B FC [4]: 0,88 fold
IRF3 FC [4]: 1,03 fold
LAMB1 FC [4]: 4,94 fold
LAMB4 FC [4]: 3,01 fold
MMP8 FC [4]: 0,94 fold
MMP9 FC [4]: 1,03 fold
MMP12 FC [4]: 0,53 fold
NLRP3 FC [4]: 0,79 fold
NOD2 FC [4]: 0,38 fold
NOXA1 FC [4]: 0,50 fold
SOCS1 FC [4]: 1,95 fold
SOCS3 FC [4]: 2,13 fold
SOD1 FC [4]: 1,35 fold
SOD2 FC [4]: 0,68 fold
STAT1 FC [4]: 0,77 fold
TBK1 FC [4]: 1,01 fold
TLR4 FC [4]: 1,04 fold
TNFRSF1B FC [4]: 1,14 fold
TRAP1 FC [4]: 0,86 fold
cGAS FC [4]: 1,29 fold
Average FC of upregulated Nrf2-dependent genes [4, 12]: 2.5 fold
number of upregulated genes (FC >2.0, p-adj <0.05) [4, 12]: 175 genes
GCLM fold change vs vehicle [4, 13]: 3.0 fold
GSR fold change vs vehicle [4, 13]: 2.0 fold
HMOX1 fold change vs vehicle [4, 13]: 2.4 fold
SRXN1 fold change vs vehicle [4, 13]: 2.4 fold
TXNRD1 fold change vs vehicle [4, 13]: 2.9 fold
NQO1 upregulation at 24 h ([4]; WT): 1.5 fold
NLRP3 inflammasome activation: release of cleaved caspase-1 and cleaved IL-1β in supernatants (WB) [5]: markedly decreased NLRP3 inflammasome activation
cleavage of gasdermin D (GSDMD) (WB) [5]: prevented the cleavage of gasdermin D
IL-1β release (ELISA) following NLRP3 activation [5]: confirmed a decrease
IL-1β release (ELISA) following high concentrations of LPS [5]: no statistical difference was observed
expression of NLRP3 (WB) [5]: markedly reduced
total protein levels of pro-IL-1β (WB) [5]: also reduced
EC50 ([6]; Homo sapiens, BEAS-2B): 60.1 ± 5.7 nM
EC50 [6]: 60 nM
ISG15 levels (WB) [7]: reduced levels
total STING levels and STING activation (phosphorylated STING and TBK1) (WB) [7]: reduced total STING levels and STING activation
target gene mRNA expression (RT-qPCR) [8]: several‐fold increases in target gene mRNA expression
protein levels of Nrf2-regulated genes by WB [9]: strong bands in WB for all tested proteins
relative cell potency among the six compounds (WB) [9]: most potent
IFN signalling (phosphorylated STAT1, IFIT1 protein levels) (WB) [10]: did not affect IFN signalling
